Active and inactive are the calls of the source. No cut-off for these calls is given here.
molecular target: T1, Human immunodeficiency virus type 1 integrase (Human immunodeficiency virus 1, UniProt Q7ZJM1); test: Inhibition of HIV1 integrase 3'-end processing activity; details: not given
T1 sequence (Q7ZJM1 whole entry): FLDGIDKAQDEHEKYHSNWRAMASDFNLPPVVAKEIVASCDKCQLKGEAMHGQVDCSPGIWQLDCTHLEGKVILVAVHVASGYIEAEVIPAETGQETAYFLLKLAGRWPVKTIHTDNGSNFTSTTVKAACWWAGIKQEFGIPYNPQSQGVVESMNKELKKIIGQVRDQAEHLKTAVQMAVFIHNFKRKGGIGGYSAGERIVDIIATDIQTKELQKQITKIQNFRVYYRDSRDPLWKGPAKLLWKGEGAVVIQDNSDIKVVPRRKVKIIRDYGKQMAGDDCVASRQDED

| SMILES | IC50 |
| --- | --- |
| Cc1cc(C)nc(SCc2nnc(SCC(=O)NNC(=O)c3ccccc3O)n2C)n1 | > 100 µM |
| O=C(CSc1nnc(Cc2ccccc2)n1-c1cccc(Cl)c1)NNC(=O)c1ccccc1O | 9 µM |
| O=C(CSc1nnnn1-c1ccccc1)NNC(=O)c1ccc(O)cc1O | 68 µM |
| O=C(CSc1nnc(-c2ccc(Cl)cc2)n1-c1ccccc1)NNC(=O)c1ccccc1O | 11 µM |
| COc1ccc(-n2c(Cc3ccccc3)nnc2SCC(=O)NNC(=O)c2ccccc2O)cc1 | 18 µM |
| Cc1ccc(-n2c(SCC(=O)NNC(=O)c3ccccc3O)nnc2-c2ccccc2O)cc1 | 5 µM |
| O=C(CSc1nnc(-c2ccccc2O)n1Cc1ccccc1)NNC(=O)c1ccccc1O | 15 µM |
| O=C(CSc1nnc(-c2ccccc2)n1Cc1ccccc1)NNC(=O)c1ccccc1O | 21 µM |
| COc1ccc(-c2nnc(SCC(=O)NNC(=O)c3ccccc3O)n2-c2ccccc2)cc1OC | 22 µM |
| O=C(CSc1nnc(-c2ccc(Cl)cc2)n1-c1ccccc1)N/N=C/c1ccccc1C(=O)O | > 100 µM |
| O=C(CSc1nnc(-c2ccncc2)n1-c1ccc(F)cc1)NNC(=O)c1ccccc1O | 49 µM |
| COc1ccccc1-n1c(SCC(=O)NNC(=O)c2ccccc2O)nnc1-c1ccccc1O | 8 µM |
| Cc1ccc(-n2c(SCC(=O)NNC(=O)c3ccccc3O)nnc2-c2ccccc2)cc1 | 23 µM |
| Cn1c(SCC(=O)NNC(=O)c2ccccc2O)nnc1-c1ccccc1 | 64 µM |
| O=C(CSc1nnc(Cc2ccccc2)n1C1CCCCC1)NNC(=O)c1ccccc1O | 21 µM |
| Cc1cc(C)nc(SCc2nnc(SCC(=O)NNC(=O)c3ccccc3O)n2-c2ccccc2)n1 | 51 µM |
| O=C(CSc1nnc(-c2ccncc2)n1-c1ccccc1)N/N=C/c1ccccc1O | > 100 µM |

molecular target: T1, Human immunodeficiency virus type 1 integrase; test: Inhibition of HIV1 integrase strand transfer activity; details: not given

| SMILES | IC50 |
| --- | --- |
| Cc1cc(C)nc(SCc2nnc(SCC(=O)NNC(=O)c3ccccc3O)n2C)n1 | > 100 µM |
| O=C(CSc1nnc(Cc2ccccc2)n1-c1cccc(Cl)c1)NNC(=O)c1ccccc1O | 8 µM |
| O=C(CSc1nnnn1-c1ccccc1)NNC(=O)c1ccc(O)cc1O | 61 µM |
| O=C(CSc1nnc(-c2ccc(Cl)cc2)n1-c1ccccc1)NNC(=O)c1ccccc1O | 5 µM |
| COc1ccc(-n2c(Cc3ccccc3)nnc2SCC(=O)NNC(=O)c2ccccc2O)cc1 | 17 µM |
| Cc1ccc(-n2c(SCC(=O)NNC(=O)c3ccccc3O)nnc2-c2ccccc2O)cc1 | 3 µM |
| O=C(CSc1nnc(-c2ccccc2O)n1Cc1ccccc1)NNC(=O)c1ccccc1O | 9 µM |
| O=C(CSc1nnc(-c2ccccc2)n1Cc1ccccc1)NNC(=O)c1ccccc1O | 9 µM |
| COc1ccc(-c2nnc(SCC(=O)NNC(=O)c3ccccc3O)n2-c2ccccc2)cc1OC | 21 µM |
| O=C(CSc1nnc(-c2ccc(Cl)cc2)n1-c1ccccc1)N/N=C/c1ccccc1C(=O)O | > 100 µM |
| O=C(CSc1nnc(-c2ccncc2)n1-c1ccc(F)cc1)NNC(=O)c1ccccc1O | 31 µM |
| COc1ccccc1-n1c(SCC(=O)NNC(=O)c2ccccc2O)nnc1-c1ccccc1O | 6 µM |
| Cc1ccc(-n2c(SCC(=O)NNC(=O)c3ccccc3O)nnc2-c2ccccc2)cc1 | 12 µM |
| Cn1c(SCC(=O)NNC(=O)c2ccccc2O)nnc1-c1ccccc1 | 58 µM |
| O=C(CSc1nnc(Cc2ccccc2)n1C1CCCCC1)NNC(=O)c1ccccc1O | 17 µM |
| Cc1cc(C)nc(SCc2nnc(SCC(=O)NNC(=O)c3ccccc3O)n2-c2ccccc2)n1 | 27 µM |
| O=C(CSc1nnc(-c2ccncc2)n1-c1ccccc1)N/N=C/c1ccccc1O | > 100 µM |

system: not listed separately; test: Cytotoxicity against human HCT116 cells; format: cell-based, HCT-116; details: not given

| SMILES | CC50 |
| --- | --- |
| Cc1cc(C)nc(SCc2nnc(SCC(=O)NNC(=O)c3ccccc3O)n2C)n1 | > 20 µM |
| O=C(CSc1nnc(Cc2ccccc2)n1-c1cccc(Cl)c1)NNC(=O)c1ccccc1O | > 20 µM |
| O=C(CSc1nnnn1-c1ccccc1)NNC(=O)c1ccc(O)cc1O | > 20 µM |
| O=C(CSc1nnc(-c2ccc(Cl)cc2)n1-c1ccccc1)NNC(=O)c1ccccc1O | > 20 µM |
| COc1ccc(-n2c(Cc3ccccc3)nnc2SCC(=O)NNC(=O)c2ccccc2O)cc1 | > 20 µM |
| Cc1ccc(-n2c(SCC(=O)NNC(=O)c3ccccc3O)nnc2-c2ccccc2O)cc1 | > 20 µM |
| O=C(CSc1nnc(-c2ccccc2O)n1Cc1ccccc1)NNC(=O)c1ccccc1O | > 20 µM |
| O=C(CSc1nnc(-c2ccccc2)n1Cc1ccccc1)NNC(=O)c1ccccc1O | > 20 µM |
| COc1ccc(-c2nnc(SCC(=O)NNC(=O)c3ccccc3O)n2-c2ccccc2)cc1OC | > 20 µM |
| O=C(CSc1nnc(-c2ccc(Cl)cc2)n1-c1ccccc1)N/N=C/c1ccccc1C(=O)O | > 20 µM |
| O=C(CSc1nnc(-c2ccncc2)n1-c1ccc(F)cc1)NNC(=O)c1ccccc1O | > 20 µM |
| COc1ccccc1-n1c(SCC(=O)NNC(=O)c2ccccc2O)nnc1-c1ccccc1O | 20 µM |
| Cc1ccc(-n2c(SCC(=O)NNC(=O)c3ccccc3O)nnc2-c2ccccc2)cc1 | 15 µM |
| Cn1c(SCC(=O)NNC(=O)c2ccccc2O)nnc1-c1ccccc1 | > 20 µM |
| O=C(CSc1nnc(Cc2ccccc2)n1C1CCCCC1)NNC(=O)c1ccccc1O | > 20 µM |
| Cc1cc(C)nc(SCc2nnc(SCC(=O)NNC(=O)c3ccccc3O)n2-c2ccccc2)n1 | > 20 µM |
| O=C(CSc1nnc(-c2ccncc2)n1-c1ccccc1)N/N=C/c1ccccc1O | > 20 µM |

system: HCT-116; test: Cytotoxicity against human HCT116 cells at 20 uM; format: cell-based; details: hct-116, 20 µM

| SMILES | Activity |
| --- | --- |
| Cc1cc(C)nc(SCc2nnc(SCC(=O)NNC(=O)c3ccccc3O)n2C)n1 | 21% |
| O=C(CSc1nnc(Cc2ccccc2)n1-c1cccc(Cl)c1)NNC(=O)c1ccccc1O | 11% |
| O=C(CSc1nnnn1-c1ccccc1)NNC(=O)c1ccc(O)cc1O | 15% |
| O=C(CSc1nnc(-c2ccc(Cl)cc2)n1-c1ccccc1)NNC(=O)c1ccccc1O | 36% |
| COc1ccc(-n2c(Cc3ccccc3)nnc2SCC(=O)NNC(=O)c2ccccc2O)cc1 | 0% |
| Cc1ccc(-n2c(SCC(=O)NNC(=O)c3ccccc3O)nnc2-c2ccccc2O)cc1 | 26% |
| O=C(CSc1nnc(-c2ccccc2O)n1Cc1ccccc1)NNC(=O)c1ccccc1O | 8% |
| O=C(CSc1nnc(-c2ccccc2)n1Cc1ccccc1)NNC(=O)c1ccccc1O | 34% |
| COc1ccc(-c2nnc(SCC(=O)NNC(=O)c3ccccc3O)n2-c2ccccc2)cc1OC | 24% |
| O=C(CSc1nnc(-c2ccc(Cl)cc2)n1-c1ccccc1)N/N=C/c1ccccc1C(=O)O | 0% |
| O=C(CSc1nnc(-c2ccncc2)n1-c1ccc(F)cc1)NNC(=O)c1ccccc1O | 22% |
| Cn1c(SCC(=O)NNC(=O)c2ccccc2O)nnc1-c1ccccc1 | 39% |
| O=C(CSc1nnc(Cc2ccccc2)n1C1CCCCC1)NNC(=O)c1ccccc1O | 11% |
| Cc1cc(C)nc(SCc2nnc(SCC(=O)NNC(=O)c3ccccc3O)n2-c2ccccc2)n1 | 0% |
| O=C(CSc1nnc(-c2ccncc2)n1-c1ccccc1)N/N=C/c1ccccc1O | 40% |

system: not listed separately; test: Cytotoxicity against human MDA-MB-435 cells; format: cell-based; details: not given

| SMILES | CC50 |
| --- | --- |
| Cc1cc(C)nc(SCc2nnc(SCC(=O)NNC(=O)c3ccccc3O)n2C)n1 | > 20 µM |
| O=C(CSc1nnc(Cc2ccccc2)n1-c1cccc(Cl)c1)NNC(=O)c1ccccc1O | > 20 µM |
| O=C(CSc1nnnn1-c1ccccc1)NNC(=O)c1ccc(O)cc1O | > 20 µM |
| O=C(CSc1nnc(-c2ccc(Cl)cc2)n1-c1ccccc1)NNC(=O)c1ccccc1O | > 20 µM |
| COc1ccc(-n2c(Cc3ccccc3)nnc2SCC(=O)NNC(=O)c2ccccc2O)cc1 | > 20 µM |
| Cc1ccc(-n2c(SCC(=O)NNC(=O)c3ccccc3O)nnc2-c2ccccc2O)cc1 | > 20 µM |
| O=C(CSc1nnc(-c2ccccc2O)n1Cc1ccccc1)NNC(=O)c1ccccc1O | > 20 µM |
| O=C(CSc1nnc(-c2ccccc2)n1Cc1ccccc1)NNC(=O)c1ccccc1O | > 20 µM |
| COc1ccc(-c2nnc(SCC(=O)NNC(=O)c3ccccc3O)n2-c2ccccc2)cc1OC | > 20 µM |
| O=C(CSc1nnc(-c2ccc(Cl)cc2)n1-c1ccccc1)N/N=C/c1ccccc1C(=O)O | > 20 µM |
| O=C(CSc1nnc(-c2ccncc2)n1-c1ccc(F)cc1)NNC(=O)c1ccccc1O | > 20 µM |
| COc1ccccc1-n1c(SCC(=O)NNC(=O)c2ccccc2O)nnc1-c1ccccc1O | > 20 µM |
| Cc1ccc(-n2c(SCC(=O)NNC(=O)c3ccccc3O)nnc2-c2ccccc2)cc1 | 20 µM |
| Cn1c(SCC(=O)NNC(=O)c2ccccc2O)nnc1-c1ccccc1 | > 20 µM |
| O=C(CSc1nnc(Cc2ccccc2)n1C1CCCCC1)NNC(=O)c1ccccc1O | > 20 µM |
| Cc1cc(C)nc(SCc2nnc(SCC(=O)NNC(=O)c3ccccc3O)n2-c2ccccc2)n1 | > 20 µM |
| O=C(CSc1nnc(-c2ccncc2)n1-c1ccccc1)N/N=C/c1ccccc1O | > 20 µM |

system: MDA-MB-435; test: Cytotoxicity against human MDA-MB-435 cells at 20 uM; format: cell-based; details: mda-mb-435, 20 µM

| SMILES | Activity |
| --- | --- |
| Cc1cc(C)nc(SCc2nnc(SCC(=O)NNC(=O)c3ccccc3O)n2C)n1 | 16% |
| O=C(CSc1nnc(Cc2ccccc2)n1-c1cccc(Cl)c1)NNC(=O)c1ccccc1O | 5% |
| O=C(CSc1nnnn1-c1ccccc1)NNC(=O)c1ccc(O)cc1O | 3% |
| O=C(CSc1nnc(-c2ccc(Cl)cc2)n1-c1ccccc1)NNC(=O)c1ccccc1O | 30% |
| COc1ccc(-n2c(Cc3ccccc3)nnc2SCC(=O)NNC(=O)c2ccccc2O)cc1 | 10% |
| Cc1ccc(-n2c(SCC(=O)NNC(=O)c3ccccc3O)nnc2-c2ccccc2O)cc1 | 12% |
| O=C(CSc1nnc(-c2ccccc2O)n1Cc1ccccc1)NNC(=O)c1ccccc1O | 15% |
| O=C(CSc1nnc(-c2ccccc2)n1Cc1ccccc1)NNC(=O)c1ccccc1O | 22% |
| COc1ccc(-c2nnc(SCC(=O)NNC(=O)c3ccccc3O)n2-c2ccccc2)cc1OC | 13% |
| O=C(CSc1nnc(-c2ccc(Cl)cc2)n1-c1ccccc1)N/N=C/c1ccccc1C(=O)O | 8% |
| O=C(CSc1nnc(-c2ccncc2)n1-c1ccc(F)cc1)NNC(=O)c1ccccc1O | 14% |
| COc1ccccc1-n1c(SCC(=O)NNC(=O)c2ccccc2O)nnc1-c1ccccc1O | 40% |
| Cn1c(SCC(=O)NNC(=O)c2ccccc2O)nnc1-c1ccccc1 | 32% |
| O=C(CSc1nnc(Cc2ccccc2)n1C1CCCCC1)NNC(=O)c1ccccc1O | 5% |
| Cc1cc(C)nc(SCc2nnc(SCC(=O)NNC(=O)c3ccccc3O)n2-c2ccccc2)n1 | 3% |
| O=C(CSc1nnc(-c2ccncc2)n1-c1ccccc1)N/N=C/c1ccccc1O | 44% |

molecular target: Human immunodeficiency virus type 1 integrase (Human immunodeficiency virus 1) (UniProt Q7ZJM1); test: Inhibition of HIV1 integrase 3'-end processing activity at 100 uM; details: not given
Sequence (Q7ZJM1 as listed by the source): as the sequence (Q7ZJM1 whole entry) above

| Activity | SMILES |
| --- | --- |
| inactive | O=C(CSc1nnc(-c2ccc(Cl)cc2)n1-c1ccccc1)N/N=C/c1ccccc1C(=O)O |
| inactive | O=C(CSc1nnc(-c2ccncc2)n1-c1ccccc1)N/N=C/c1ccccc1O |

molecular target: Human immunodeficiency virus type 1 integrase (Human immunodeficiency virus 1) (UniProt Q7ZJM1); test: Inhibition of HIV1 integrase strand transfer activity at 100 uM; details: not given

| Activity | SMILES |
| --- | --- |
| inactive | O=C(CSc1nnc(-c2ccc(Cl)cc2)n1-c1ccccc1)N/N=C/c1ccccc1C(=O)O |
| inactive | O=C(CSc1nnc(-c2ccncc2)n1-c1ccccc1)N/N=C/c1ccccc1O |

Reference: ChEMBL document CHEMBL1140576, “Discovery of novel non-cytotoxic salicylhydrazide containing HIV-1 integrase inhibitors” (Bioorg Med Chem Lett, 2007)
